ChEMBL document CHEMBL3994622, “Design and synthesis of new RAF kinase-inhibiting antiproliferative quinoline derivatives. Part 2: Diarylurea derivatives” (Eur J Med Chem, 2017)

What was measured:
[1] = tested on: HL-60(TB); assay: Growth inhibition of human HL-60(TB) cells incubated for 48 hrs by sulforhodamine B assay; format: functional; conditions: HL-60, 48 h; for CC50: read-out: LC50 (the source's name)
[2] = tested on: HOP-62; assay: Growth inhibition of human HOP62 cells incubated for 48 hrs by sulforhodamine B assay; format: functional; conditions: HOP-62, 48 h; for CC50: read-out: LC50 (the source's name)
[3] = tested on: NCI-H226; assay: Growth inhibition of human NCI-H226 cells incubated for 48 hrs by sulforhodamine B assay; format: functional; conditions: NCI-H226, 48 h; for CC50: read-out: LC50 (the source's name)
[4] = tested on: NCI-H23; assay: Growth inhibition of human NCI-H23 cells incubated for 48 hrs by sulforhodamine B assay; format: functional; conditions: NCI-H23, 48 h; for CC50: read-out: LC50 (the source's name)
[5] = tested on: NCI-H522; assay: Growth inhibition of human NCI-H522 cells incubated for 48 hrs by sulforhodamine B assay; format: functional; conditions: NCI-H522, 48 h; for CC50: read-out: LC50 (the source's name)
[6] = tested on: COLO 205; assay: Growth inhibition of human COLO205 cells incubated for 48 hrs by sulforhodamine B assay; format: functional; conditions: COLO 205, 48 h; for CC50: read-out: LC50 (the source's name)
[7] = tested on: HT-29; assay: Growth inhibition of human HT-29 cells incubated for 48 hrs by sulforhodamine B assay; format: functional; conditions: HT-29, 48 h; for CC50: read-out: LC50 (the source's name)
[8] = tested on: KM12; assay: Growth inhibition of human KM12 cells incubated for 48 hrs by sulforhodamine B assay; format: functional; conditions: KM12, 48 h; for CC50: read-out: LC50 (the source's name)
[9] = tested on: SF-268; assay: Growth inhibition of human SF268 cells incubated for 48 hrs by sulforhodamine B assay; format: functional; conditions: SF-268, 48 h
[10] = tested on: SNB-19; assay: Growth inhibition of human SNB19 cells incubated for 48 hrs by sulforhodamine B assay; format: functional; conditions: SNB-19, 48 h; for CC50: read-out: LC50 (the source's name)
[11] = tested on: SK-MEL-5; assay: Growth inhibition of human SK-MEL-5 cells incubated for 48 hrs by sulforhodamine B assay; format: functional; conditions: SK-MEL-5, 48 h; for CC50: read-out: LC50 (the source's name)
[12] = tested on: UACC-62; assay: Growth inhibition of human UACC62 cells incubated for 48 hrs by sulforhodamine B assay; format: functional; conditions: UACC-62, 48 h; for CC50: read-out: LC50 (the source's name)
[13] = tested on: NCI/ADR-RES; assay: Growth inhibition of human NCI/ADR-RES cells incubated for 48 hrs by sulforhodamine B assay; format: functional; conditions: for CC50: read-out: LC50 (the source's name)
[14] = tested on: 786-0; assay: Growth inhibition of human 786-0 cells incubated for 48 hrs by sulforhodamine B assay; format: functional; conditions: 786-0, 48 h; for CC50: read-out: LC50 (the source's name)
[15] = tested on: CAKI-1; assay: Growth inhibition of human Caki1 cells incubated for 48 hrs by sulforhodamine B assay; format: functional; conditions: CAKI-1, 48 h; for CC50: read-out: LC50 (the source's name)
[16] = tested on: SN12C; assay: Growth inhibition of human SN12C cells incubated for 48 hrs by sulforhodamine B assay; format: functional; conditions: for CC50: read-out: LC50 (the source's name)
[17] = tested on: TK-10; assay: Growth inhibition of human TK10 cells incubated for 48 hrs by sulforhodamine B assay; format: functional; conditions: TK-10, 48 h; for CC50: read-out: LC50 (the source's name)
[18] = tested on: DU-145; assay: Growth inhibition of human DU145 cells incubated for 48 hrs by sulforhodamine B assay; format: functional; conditions: DU-145, 48 h; for CC50: read-out: LC50 (the source's name)
[19] = tested on: MCF7; assay: Growth inhibition of human MCF7 cells incubated for 48 hrs by sulforhodamine B assay; format: functional; conditions: MCF7, 48 h; for CC50: read-out: LC50 (the source's name)
[20] = tested on: Hs-578T; assay: Growth inhibition of human Hs 578T cells incubated for 48 hrs by sulforhodamine B assay; format: functional; conditions: for CC50: read-out: LC50 (the source's name)
[21] = target: RAF proto-oncogene serine/threonine-protein kinase (Homo sapiens, UniProt P04049); assay: Inhibition of human c-RAF using MEK1 as substrate in presence of [33P]ATP by Hotspot assay
[22] = tested on: CCRF-CEM; assay: Growth inhibition of human CCRF-CEM cells assessed as cell growth at 0.003 uM incubated for 48 hrs by sulforhodamine B assay relative to control; format: functional; conditions: read-out: Activity
[23] = tested on: NCI-H226; assay: Growth inhibition of human NCI-H226 cells assessed as cell growth at 0.003 uM incubated for 48 hrs by sulforhodamine B assay relative to control; format: functional; conditions: NCI-H226, 48 h, read-out: Activity
[24] = tested on: BT-549; assay: Growth inhibition of human BT549 cells assessed as cell growth at 0.003 uM incubated for 48 hrs by sulforhodamine B assay relative to control; format: functional; conditions: BT-549, 48 h, read-out: Activity
[25] = tested on: HOP-62; assay: Growth inhibition of human HOP62 cells assessed as cell growth at 3 uM incubated for 48 hrs by sulforhodamine B assay relative to control; format: functional; conditions: HOP-62, 48 h, read-out: Activity
[26] = tested on: BT-549; assay: Growth inhibition of human BT549 cells assessed as cell growth at 3 uM incubated for 48 hrs by sulforhodamine B assay relative to control; format: functional; conditions: BT-549, 48 h, read-out: Activity
[27] = tested on: SF-295; assay: Growth inhibition of human SF295 cells assessed as cell growth at 30 uM incubated for 48 hrs by sulforhodamine B assay relative to control; format: functional; conditions: SF-295, 48 h, read-out: Activity
[28] = tested on: Malme-3M; assay: Growth inhibition of human MALME-3M cells assessed as cell growth at 30 uM incubated for 48 hrs by sulforhodamine B assay relative to control; format: functional; conditions: read-out: Activity

Chain of RAF proto-oncogene serine/threonine-protein kinase (P04049 whole entry): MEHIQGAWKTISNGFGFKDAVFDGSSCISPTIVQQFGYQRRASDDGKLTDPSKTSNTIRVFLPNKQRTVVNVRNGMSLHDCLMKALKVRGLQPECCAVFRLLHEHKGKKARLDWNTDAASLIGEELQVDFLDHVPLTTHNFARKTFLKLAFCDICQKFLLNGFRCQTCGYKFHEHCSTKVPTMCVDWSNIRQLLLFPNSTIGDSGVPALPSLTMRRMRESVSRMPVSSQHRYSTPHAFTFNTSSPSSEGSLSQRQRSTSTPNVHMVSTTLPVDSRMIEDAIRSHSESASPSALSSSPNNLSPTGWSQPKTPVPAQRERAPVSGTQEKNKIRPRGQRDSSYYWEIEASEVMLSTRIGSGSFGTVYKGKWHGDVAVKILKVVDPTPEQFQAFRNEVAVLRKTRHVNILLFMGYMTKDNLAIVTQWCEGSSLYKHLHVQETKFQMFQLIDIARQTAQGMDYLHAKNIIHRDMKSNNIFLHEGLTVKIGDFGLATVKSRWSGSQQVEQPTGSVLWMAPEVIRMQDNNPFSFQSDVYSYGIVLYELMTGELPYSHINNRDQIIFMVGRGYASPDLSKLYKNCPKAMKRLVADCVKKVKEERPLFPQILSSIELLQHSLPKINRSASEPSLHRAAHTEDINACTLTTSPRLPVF

COc1cc2cc(Oc3ccc(NC(=O)Nc4cccc(C(F)(F)F)c4)cc3)c(C)nc2cc1OC
GI50 [1]: 1.56 µM
TGI [1]: 3.91 µM
CC50 [1]: > 50 µM
GI50 [2]: 2.33 µM
TGI [2]: 8.44 µM
CC50 [2]: 24.1 µM
GI50 [3]: 1.8 µM
TGI [3]: 5.6 µM
CC50 [3]: 28.8 µM
GI50 [4]: 1.7 µM
TGI [4]: 7.41 µM
CC50 [4]: > 50 µM
GI50 [5]: 1.32 µM
TGI [5]: 4.49 µM
CC50 [5]: 32.4 µM
GI50 [6]: 1.12 µM
TGI [6]: 2.4 µM
CC50 [6]: 5.7 µM
GI50 [7]: 2.05 µM
TGI [7]: 6.26 µM
CC50 [7]: 17.8 µM
GI50 [8]: 1.42 µM
TGI [8]: 5.92 µM
CC50 [8]: 36.1 µM
GI50 [9]: 2.57 µM
LC50 (50% lethal concentration) [9]: > 50 µM
TGI [9]: 15.5 µM
GI50 [10]: 2.19 µM
TGI [10]: 15 µM
CC50 [10]: > 50 µM
GI50 [11]: 1.08 µM
TGI [11]: 2.66 µM
CC50 [11]: 8.47 µM
GI50 [12]: 1.84 µM
TGI [12]: 10.9 µM
CC50 [12]: > 50 µM
GI50 [13]: 1.71 µM
TGI [13]: 7.19 µM
CC50 [13]: 40 µM
GI50 [14]: 1.74 µM
TGI [14]: 9.24 µM
CC50 [14]: > 50 µM
GI50 [15]: 1.32 µM
TGI [15]: 4.29 µM
CC50 [15]: 48.6 µM
GI50 [16]: 2.06 µM
TGI [16]: 16.3 µM
CC50 [16]: > 50 µM
GI50 [17]: 2.26 µM
TGI [17]: 9.93 µM
CC50 [17]: > 50 µM
GI50 [18]: 2.78 µM
TGI [18]: 15.8 µM
CC50 [18]: > 50 µM
GI50 [19]: 1.34 µM
TGI [19]: 5.43 µM
CC50 [19]: 18.9 µM
GI50 [20]: 1.44 µM
TGI [20]: 4.22 µM
CC50 [20]: > 50 µM
IC50 [21]: 0.15 µM

COc1cc2cc(Oc3ccc(NC(=O)Nc4ccc(Cl)c(C(F)(F)F)c4)cc3)c(C)nc2cc1OC
GI50 [1]: 1.13 µM
TGI [1]: 3.12 µM
CC50 [1]: > 32.5 µM
GI50 [2]: 1.3 µM
TGI [2]: 5.32 µM
CC50 [2]: 13.7 µM
GI50 [3]: 1.27 µM
TGI [3]: 5.01 µM
CC50 [3]: > 32.5 µM
GI50 [4]: 0.991 µM
TGI [4]: 3.79 µM
CC50 [4]: 15.8 µM
GI50 [5]: 0.773 µM
TGI [5]: 2.65 µM
CC50 [5]: 12.2 µM
GI50 [6]: 0.66 µM
TGI [6]: 1.31 µM
CC50 [6]: 2.59 µM
GI50 [7]: 1.2 µM
TGI [7]: 3.98 µM
CC50 [7]: 14.2 µM
GI50 [8]: 1.07 µM
TGI [8]: 3.85 µM
CC50 [8]: 13.8 µM
GI50 [9]: 1.55 µM
LC50 (50% lethal concentration) [9]: 22.6 µM
TGI [9]: 6.34 µM
GI50 [10]: 1.41 µM
TGI [10]: 5.31 µM
CC50 [10]: 15 µM
GI50 [11]: 0.793 µM
TGI [11]: 2.17 µM
CC50 [11]: 8.01 µM
GI50 [12]: 1.24 µM
TGI [12]: 6.01 µM
CC50 [12]: 18.4 µM
GI50 [13]: 1.06 µM
TGI [13]: 4.91 µM
CC50 [13]: > 32.5 µM
GI50 [14]: 1.17 µM
TGI [14]: 4.97 µM
CC50 [14]: 18.8 µM
GI50 [15]: 0.782 µM
TGI [15]: 2.54 µM
CC50 [15]: 25.2 µM
GI50 [16]: 1.31 µM
TGI [16]: 6.12 µM
CC50 [16]: 26.8 µM
GI50 [17]: 1.32 µM
TGI [17]: 6.19 µM
CC50 [17]: > 32.5 µM
GI50 [18]: 1.24 µM
TGI [18]: 5.11 µM
CC50 [18]: 19.1 µM
GI50 [19]: 1.08 µM
TGI [19]: 3.88 µM
CC50 [19]: 15 µM
GI50 [20]: 0.72 µM
TGI [20]: 2.31 µM
CC50 [20]: 27.4 µM
IC50 [21]: 0.1 µM
growth at 0.003 µM [22]: 111%
growth at 0.003 µM [23]: 96%
growth at 0.003 µM [24]: 98%
growth at 3 µM [25]: 26%
growth at 3 µM [26]: 12%
growth at 30 µM [27]: -59%
growth at 30 µM [28]: -37%

Cc1nc2cc(O)c(O)cc2cc1Oc1ccc(NC(=O)Nc2ccc(Cl)c(Cl)c2)cc1
GI50 [1]: 9.02 µM
TGI [1]: 22.4 µM
CC50 [1]: > 32.5 µM
GI50 [2]: 8.62 µM
TGI [2]: > 32.5 µM
CC50 [2]: > 32.5 µM
GI50 [3]: 11.8 µM
TGI [3]: > 32.5 µM
CC50 [3]: > 32.5 µM
GI50 [4]: 6.97 µM
TGI [4]: 19.6 µM
CC50 [4]: > 32.5 µM
GI50 [5]: 4.43 µM
TGI [5]: 12.5 µM
CC50 [5]: > 32.5 µM
GI50 [6]: 10.3 µM
TGI [6]: > 32.5 µM
CC50 [6]: > 32.5 µM
GI50 [7]: 11.9 µM
TGI [7]: > 32.5 µM
CC50 [7]: > 32.5 µM
GI50 [8]: 9.64 µM
TGI [8]: 32 µM
CC50 [8]: > 32.5 µM
GI50 [9]: 8.45 µM
LC50 (50% lethal concentration) [9]: > 32.5 µM
TGI [9]: > 32.5 µM
GI50 [10]: 10.1 µM
TGI [10]: > 32.5 µM
CC50 [10]: > 32.5 µM
GI50 [11]: 5.94 µM
TGI [11]: 14.2 µM
CC50 [11]: > 32.5 µM
GI50 [12]: 5.67 µM
TGI [12]: 11.2 µM
CC50 [12]: 22.1 µM
GI50 [13]: 8.74 µM
TGI [13]: > 32.5 µM
CC50 [13]: > 32.5 µM
GI50 [14]: 7.67 µM
TGI [14]: 18.6 µM
CC50 [14]: > 32.5 µM
GI50 [15]: 4.96 µM
TGI [15]: 30 µM
CC50 [15]: > 32.5 µM
GI50 [16]: 8.97 µM
TGI [16]: 30.3 µM
CC50 [16]: > 32.5 µM
GI50 [17]: 14.2 µM
TGI [17]: > 32.5 µM
CC50 [17]: > 32.5 µM
GI50 [18]: 7.26 µM
TGI [18]: 25.2 µM
CC50 [18]: > 32.5 µM
GI50 [19]: 8.7 µM
TGI [19]: > 32.5 µM
CC50 [19]: > 32.5 µM
GI50 [20]: 12.8 µM
TGI [20]: > 32.5 µM
CC50 [20]: > 32.5 µM
growth at 0.003 µM [22]: 97%
growth at 0.003 µM [23]: 101%
growth at 0.003 µM [24]: 91%
growth at 3 µM [25]: 87%
growth at 3 µM [26]: 78%
growth at 30 µM [27]: 9%
growth at 30 µM [28]: -10%
